Experimental data reported in ChEMBL document CHEMBL4354805, “Discovery of MK-8719, a Potent O-GlcNAcase Inhibitor as a Potential Treatment for Tauopathies” (J Med Chem, 2019).
Each block holds one compound with its values, some of them ahead of it.

Legend:
[1] = Drug excretion in rat cage at 10 mg/kg, po; format: ADME, organism-based; conditions: read-out: Drug excretion
[2] = Drug excretion in dog cage at 3 mg/kg, po; format: ADME, organism-based, Canis lupus familiaris; conditions: read-out: Drug excretion
[3] = Drug excretion in dog at 3 mg/kg, po; format: ADME, organism-based, Canis lupus familiaris; conditions: in vivo, read-out: Drug excretion
[4] = Drug excretion in rat urine at 10 mg/kg, po; format: ADME, organism-based; conditions: read-out: Drug excretion
[5] = Drug excretion in rat at 10 mg/kg, po; format: ADME, organism-based; conditions: in vivo, read-out: Drug excretion
[6] = Drug excretion in dog bile at 3 mg/kg, po; format: ADME, organism-based, Canis lupus familiaris; conditions: read-out: Drug excretion
[7] = Drug excretion in rat feces at 10 mg/kg, po; format: ADME, organism-based; conditions: faeces, read-out: Drug excretion
[8] = Drug excretion in rat bile at 10 mg/kg, po; format: ADME, organism-based; conditions: read-out: Drug excretion
[9] = Drug excretion in dog urine at 3 mg/kg, po; format: ADME, organism-based, Canis lupus familiaris; conditions: read-out: Drug excretion
[10] = Half life in Wistar Han rat at 1 mg/kg, iv; format: ADME, organism-based; conditions: in vivo
[11] = Drug uptake in rat brain at 3 mg/kg, po measured after 24 hrs; format: ADME, organism-based; conditions: in vivo
Rattus norvegicus [12] = assay: Elevation of O-protein in rat brain at 3 mg/kg, po measured after 24 hrs relative to control; format: functional
[13] = Clearance in Wistar Han rat at 1 mg/kg, iv; format: ADME, organism-based; conditions: in vivo
[14] = AUC (0 to 24 hrs) in rat brain at 3 mg/kg, po measured upto 24 hrs; format: ADME, organism-based; set-up: dose 3 mg/kg, time < 24 hr, route oral; conditions: in vivo
[15] = biological target: T1, Beta-hexosaminidase subunit beta (Homo sapiens, UniProt P07686); assay: Inhibition of human beta hexosaminidase assessed as inhibitory constant using 4-methylumbelliferyl N-acetyl-beta-D-glucosaminide dihydrate as substrate measured every 60 sec for 45 mins by fluorescence spectrophotometry
T1 sequence (P07686 whole entry): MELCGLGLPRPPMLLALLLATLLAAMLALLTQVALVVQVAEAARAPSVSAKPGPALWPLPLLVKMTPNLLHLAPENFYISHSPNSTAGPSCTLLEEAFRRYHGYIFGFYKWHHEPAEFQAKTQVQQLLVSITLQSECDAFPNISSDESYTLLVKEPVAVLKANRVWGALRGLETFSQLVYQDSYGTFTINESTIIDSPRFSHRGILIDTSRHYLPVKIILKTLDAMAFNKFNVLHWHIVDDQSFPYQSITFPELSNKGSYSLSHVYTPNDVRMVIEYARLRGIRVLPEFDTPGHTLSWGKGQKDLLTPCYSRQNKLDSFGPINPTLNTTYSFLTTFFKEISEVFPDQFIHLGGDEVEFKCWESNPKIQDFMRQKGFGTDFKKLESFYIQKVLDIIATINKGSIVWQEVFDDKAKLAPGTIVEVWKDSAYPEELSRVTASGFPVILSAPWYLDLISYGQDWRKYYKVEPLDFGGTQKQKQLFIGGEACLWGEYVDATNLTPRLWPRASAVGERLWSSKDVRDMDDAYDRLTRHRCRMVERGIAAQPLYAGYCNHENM

[16] = Tmax in rat brain at 3 mg/kg, po measured upto 24 hrs; format: ADME, organism-based
Rattus norvegicus [17] = assay: Elevation of O-protein in rat brain at 3 mg/kg, po measured after 8 hrs relative to control; format: functional
[18] = Ratio of drug uptake in rat brain to plasma at 3 mg/kg, po measured after 24 hrs; format: ADME, organism-based; conditions: read-out: BPR
[19] = Fraction unbound in human plasma at 2.5 uM by equilibrium dialysis; format: ADME, cell-free
[20] = Oral bioavailability in Wistar Han rat at 3 mg/kg; format: ADME, organism-based; conditions: in vivo
Protein O-GlcNAcase [21] = biological target: T2, Protein O-GlcNAcase (Rattus norvegicus, UniProt Q8VIJ5); assay: Inhibition of OGA in rat PC12 cells assessed as OGlcNAcylated protein level incubated for 24 hrs by ELISA; format: cell-based
T2 sequence (Q8VIJ5 whole entry): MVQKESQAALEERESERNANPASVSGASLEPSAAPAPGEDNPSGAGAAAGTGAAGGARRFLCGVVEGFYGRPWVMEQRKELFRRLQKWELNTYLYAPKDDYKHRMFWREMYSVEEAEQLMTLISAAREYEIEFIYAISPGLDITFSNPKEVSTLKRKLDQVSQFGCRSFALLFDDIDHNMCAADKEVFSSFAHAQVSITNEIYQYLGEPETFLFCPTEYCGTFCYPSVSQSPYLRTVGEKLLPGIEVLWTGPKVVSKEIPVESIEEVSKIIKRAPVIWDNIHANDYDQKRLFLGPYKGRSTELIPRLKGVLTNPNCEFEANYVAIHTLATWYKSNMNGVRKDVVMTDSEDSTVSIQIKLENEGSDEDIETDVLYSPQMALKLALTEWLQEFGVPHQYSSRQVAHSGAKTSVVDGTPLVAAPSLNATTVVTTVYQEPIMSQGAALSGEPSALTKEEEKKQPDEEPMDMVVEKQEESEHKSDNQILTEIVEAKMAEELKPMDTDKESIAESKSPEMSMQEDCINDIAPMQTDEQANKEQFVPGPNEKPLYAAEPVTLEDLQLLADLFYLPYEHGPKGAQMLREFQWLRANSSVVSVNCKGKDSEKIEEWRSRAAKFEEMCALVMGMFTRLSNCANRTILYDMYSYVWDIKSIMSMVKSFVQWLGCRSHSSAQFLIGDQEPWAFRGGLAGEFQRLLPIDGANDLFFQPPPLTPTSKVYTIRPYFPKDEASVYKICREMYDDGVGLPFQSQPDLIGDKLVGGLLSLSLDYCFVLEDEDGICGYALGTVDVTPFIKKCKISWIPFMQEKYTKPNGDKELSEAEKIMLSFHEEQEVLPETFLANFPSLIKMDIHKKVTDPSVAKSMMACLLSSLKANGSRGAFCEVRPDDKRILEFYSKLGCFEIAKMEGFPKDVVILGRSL

[22] = Fraction unbound in Wistar Han rat plasma at 2.5 uM by equilibrium dialysis; format: ADME, cell-free
[23] = Drug uptake in rat brain at 3 mg/kg, po measured after 8 hrs; format: ADME, organism-based; conditions: in vivo
[24] = Ratio of drug uptake in rat brain to plasma at 3 mg/kg, po measured after 8 hrs; format: ADME, organism-based; conditions: read-out: BPR
Rattus norvegicus [25] = assay: Increase in O-protein AUC in rat brain at 3 mg/kg, po measured upto 24 hrs; format: ADME, organism-based; conditions: in vivo
Protein O-GlcNAcase [26] = biological target: T3, Protein O-GlcNAcase (Homo sapiens, UniProt O60502); assay: Inhibition of recombinant human OGA
T3 sequence (O60502 whole entry): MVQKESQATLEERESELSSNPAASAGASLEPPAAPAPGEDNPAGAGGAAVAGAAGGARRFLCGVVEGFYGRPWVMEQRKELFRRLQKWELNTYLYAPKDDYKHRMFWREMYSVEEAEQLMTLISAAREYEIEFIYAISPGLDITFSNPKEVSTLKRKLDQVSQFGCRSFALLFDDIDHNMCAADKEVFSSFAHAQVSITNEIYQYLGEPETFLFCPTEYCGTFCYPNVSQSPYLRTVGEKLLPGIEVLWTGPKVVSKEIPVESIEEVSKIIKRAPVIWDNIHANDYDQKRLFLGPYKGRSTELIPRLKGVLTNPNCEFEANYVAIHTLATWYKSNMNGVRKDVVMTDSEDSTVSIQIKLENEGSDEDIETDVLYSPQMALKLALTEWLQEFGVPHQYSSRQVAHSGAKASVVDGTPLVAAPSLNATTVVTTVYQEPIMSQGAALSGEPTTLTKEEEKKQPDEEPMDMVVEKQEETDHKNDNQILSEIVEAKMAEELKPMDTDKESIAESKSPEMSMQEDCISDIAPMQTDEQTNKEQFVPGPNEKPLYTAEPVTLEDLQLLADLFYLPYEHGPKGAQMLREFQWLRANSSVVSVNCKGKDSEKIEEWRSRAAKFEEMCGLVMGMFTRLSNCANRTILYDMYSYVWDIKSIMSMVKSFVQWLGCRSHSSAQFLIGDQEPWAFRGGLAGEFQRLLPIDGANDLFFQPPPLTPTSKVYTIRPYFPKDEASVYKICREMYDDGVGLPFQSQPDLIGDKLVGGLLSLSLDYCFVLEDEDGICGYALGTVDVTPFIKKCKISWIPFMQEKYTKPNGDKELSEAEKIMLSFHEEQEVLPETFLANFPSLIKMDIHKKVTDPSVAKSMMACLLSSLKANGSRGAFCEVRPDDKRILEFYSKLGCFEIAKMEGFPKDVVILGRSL

[27] = AUCN in Wistar Han rat at 3 mg/kg, po; format: ADME, organism-based; conditions: in vivo
[28] = Volume of distribution at steady state in Wistar Han rat at 1 mg/kg, iv or 3 mg/kg, po; format: ADME, organism-based; conditions: in vivo, read-out: Vdss

dose excreted [1]: 3%
dose excreted [2]: 1%
dose excreted [3]: 88%
dose excreted [4]: 75%
dose excreted [5]: 96%
dose excreted [6]: 8%
dose excreted [7]: 0.5%
dose excreted [8]: 17%
dose excreted [9]: 79%
SMILES: [3H][C@@]1(O)[C@@H](C(F)F)O[C@@H]2SC(NCC)=N[C@@H]2[C@H]1O

half-life [10]: 1.27 h
Drug uptake [11]: 0.074 nmol/g
clearance [13]: 36.8 mL/min/kg
AUC [14]: 1.963 nM·h/g
Ki [15]: > 10000 nM
Tmax [16]: 8 h
Kp at 24 h [18]: ≥ 29.5
fraction unbound at 2.5 µM [19]: 0.84
bioavailability [20]: 70.4%
EC50 (Protein O-GlcNAcase [21]): 10.6 nM
fraction unbound at 2.5 µM [22]: 0.96
Drug uptake [23]: 0.099 nmol/g
Kp at 8 h [24]: 1.67
fold change (FC) (Rattus norvegicus [25]): 18.44
Ki (Protein O-GlcNAcase [26]): 0.53 nM
AUC/dose [27]: 1.43 µM·kg·h/mg
Vd [28]: 2 L/kg
SMILES: CNC1=N[C@@H]2[C@H](F)[C@H](O)[C@@H](CO)O[C@@H]2S1
fold change (FC) (Rattus norvegicus [12]): 1.45
fold change (FC) (Rattus norvegicus [17]): 2.13
